The values that follow come from patent US20070275968A1, “Substituted Biphenyl Derivative” (priority 2004, published 2007).

In the first data set the test system is NRK-49F cells. Put plainly: Collagen synthesis inhibition test. It counts as cell-based. To be noted: 25 ng/mL TGF-β added, cultured about 44 hr, 3H-labeled proline taken into collagen, no TGF-β = 100% inhibition, no test compound = 0% inhibition, read-out: Collagen synthesis inhibiting activity IC50. The procedure: Collagen Synthesis Inhibition Test
Collagen synthesis inhibiting activity was evaluated by the following assay.
NRK-49F cells (Dainippon Pharmaceutical) are seeded into a 96-well plate. After becoming confluent, the medium is changed to a serum-free Dulbecco's modified MEM medium (Invitrogen) containing 5 μg/mL insulin, 5 μg/mL transferin, and 5 ng/mL selenious acid. One day later, the medium is changed to a serum-free Dulbecco's modified MEM medium (80 μl) containing 10 ng/mL IGF-II (Sigma) and 50 μg/mL L-ascorbic acid (Sigma), and a ten times concentration of a test compound (10 μl) is added thereto. Thirty minutes later, 25 ng/mL TGF-β (R&D System: 10 μL) is added to the medium, and the cells are cultured for about 44 hr. Twenty four hours before the termination of the culturing, ^3H-labeled proline (Amersham: 1 μCi) is added so as to be taken into collagen in the cells. When the culturing is terminated, 30% trichloroacetic acid (50 μL) is added to the medium. After leaving for 20 min, proteins are precipitated by centrifugation at 3000 rpm for 10 min. The supernatant is removed, and the residue is twice washed with 200 μL of a washing solution (ethanol:ether=3:1). The precipitate is air-dried, and the washing solution is sufficiently removed. After addition of 60 μL of a collagenase solution (2 mg/mL collagenase VII (Sigma), 50 mM Tris-HCl (pH 7.4), 5 mM CaCl2), the resulting mixture is treated at 37° C. for 2 hr to decompose collagen. Then, 90 μL of 15% trichloroacetic acid and 5% tannic acid are added thereto. The resulting mixture is left for 20 min and then centrifuged at 3000 rpm for 10 min. The supernatant (50 μL) is transferred to LumaPlate (PerkinElmer Lifescience) and is air-dried. Then, the amount of ^3H is measured by a Top Count.
For orientation: IC50 means the concentration needed to halve the response being measured. Regarding `Cc1cccc(-c2nc(C(C)C)[nH]c2-c2ccc(F)c(-c3ccc(CN4CCOCC4)cc3)c2)n1` [Example 109], the IC50 is 130 nM.
On the same count and under the same terms, as for `Cc1cccc(-c2cn(C(C)C)nc2-c2ccc(F)c(-c3cn[nH]c3)c2)n1` [Example 112, 2-{5-[4-Fluoro-3-(1H-pyrazol-4-yl)phenyl]-2-isopropyl-1H-pyrazol-4-yl}-6-methylpyridine], the figure is 30 nM.

Still in this data set, the particulars now being: Rattus norvegicus, 25 ng/mL TGF-β added, cultured about 44 hr, 3H-labeled proline taken into collagen, no TGF-β = 100% inhibition, no test compound = 0% inhibition, read-out: Collagen synthesis inhibiting activity IC50.
Turning to `Cc1cccc(-c2[nH]c(C(C)C)nc2-c2cccc(-c3ccc(C(=O)NN4CCN(C)CC4)cc3)c2)n1` [Example 48, N-(4-Methylpiperazin-1-yl)-4-{3-[2-isopropyl-5-(6-methylpyridin-2-yl)-1H-imidazol-4-yl]phenyl}benzamide], the IC50 was found to be 1490 nM.
Turning to `Cc1cccc(-c2[nH]c(C(C)C)nc2-c2ccc(F)c(-c3ccc(OCCN4CCCCC4)cc3)c2)n1` [Example 117, 2-{4-[6-Fluoro-4′-(2-piperidin-1-ylethoxy)-1,1′-biphenyl-3-yl]-2-isopropyl-1H-imidazol-5-yl}-6-methylpyridine], the 50% inhibitory concentration (IC50) worked out at 1170 nM.
Regarding `CNS(=O)(=O)c1ccc(-c2cc(-c3c[nH]nc3-c3cccc(C)n3)ccc2F)cc1` [Example 156, 2′-Fluoro-N-methyl-5′-[3-(6-methylpyridin-2-yl)-1H-pyrazol-4-yl]-1,1′-biphenyl-4-sulfonamide], the IC50 turned out to be 100 nM.

Tested on in a further data set: not given
Test: not given
Details: not given
A word on the melting point: it is the temperature, or range, at which the solid turns liquid. With `Cc1cccc(-c2n[nH]cc2-c2ccc(F)c(-c3csc(C(C)(C)O)n3)c2)n1` [Example 178, 2-(4-{2-Fluoro-5-[3-(6-methylpyridin-2-yl)-1H-pyrazol-4-yl]phenyl}-1,3-thiazol-2-yl)propan-2-ol], the melting point lay in the range of 78 to 80 °C.
Compound `Cc1cccc(-c2n[nH]cc2-c2ccc(F)c(-c3csc(CO)n3)c2)n1` [Example 182, (4-{2-Fluoro-5-[3-(6-methylpyridin-2-yl)-1H-pyrazol-4-yl]phenyl}-1,3-thiazol-2-yl)methanol] had a melting point of 89 to 92 °C.
On the same count and under the same terms, the value for `Cc1cccc(-c2n[nH]cc2-c2ccc(F)c(-c3ncc(C(C)(C)O)cn3)c2)n1` [Example 183, 2-(2-{2-Fluoro-5-[3-(6-methylpyridin-2-yl)-1H-pyrazol-4-yl]phenyl}pyrimidin-5-yl)propan-2-ol] was 162 °C; that for `Cc1cccc(-c2n[nH]cc2-c2ccc(F)c(-c3cn(CCN4CCOCC4)cn3)c2)n1` [Example 185, 4-[2-(4-{2-Fluoro-5-[3-(6-methylpyridin-2-yl)-1H-pyrazol-4-yl]phenyl}-1H-imidazol-1-yl)ethyl]morpholine] was 144 to 145 °C; that for `Cc1cccc(-c2n[nH]cc2-c2ccc(F)c(-c3cn(CCN(C)C)cn3)c2)n1` [Example 186, 2-(4-{2-Fluoro-5-[3-(6-methylpyridin-2-yl)-1H-pyrazol-4-yl]phenyl}-1H-imidazol-1-yl)-N,N-dimethylethylamine] was 130 to 131 °C.
The same measure, in the same setting: the value for `Cc1cccc(-c2n[nH]cc2-c2ccc(F)c(-c3ccc(N4CCN(C)CC4)nc3)c2)n1` [Example 187, 1-(5-{2-Fluoro-5-[3-(6-methylpyridin-2-yl)-1H-pyrazol-4-yl]phenyl}pyridin-2-yl)-4-methylpiperazine] was 86 °C; that for `Cc1cccc(-c2n[nH]cc2-c2ccc(F)c(-c3ccc(N4CCN(C)CC4)cn3)c2)n1` [Example 188, 1-(6-{2-Fluoro-5-[3-(6-methylpyridin-2-yl)-1H-pyrazol-4-yl]phenyl}pyridin-3-yl)-4-methylpiperazine] was 97 °C.
Still for that read-out and setting: the value for `Cc1cccc(-c2n[nH]cc2-c2ccc(F)c(-c3ccc(S(C)(=O)=O)cc3)c2)n1` [Example 191, 2-{4-[6-Fluoro-4′-(methylsulfonyl)-1,1′-biphenyl-3-yl]-1H-pyrazol-3-yl}-6-methylpyridine] was 100 to 102 °C; that for `Cc1cccc(-c2n[nH]cc2-c2ccc(F)c(-c3ccc(NC(=O)NN4CCOCC4)cc3)c2)n1` [Example 192, N-{2′-Fluoro-5′-[3-(6-methylpyridin-2-yl)-1H-pyrazol-4-yl]-1,1′-biphenyl-4-yl}-N′-morpholine-4-ylurea] was 131 to 133 °C.
`Cc1cccc(-c2n[nH]cc2-c2ccc(F)c(-c3ccc[nH]3)c2)n1` [Example 193, 2-{4-[4-Fluoro-3-(1H-pyrrol-2-yl)phenyl]-1H-pyrazol-3-yl}-6-methylpyridine] yielded a melting point of 141 to 142 °C.
`Cc1cccc(-c2n[nH]cc2-c2ccc(F)c(-c3ccc(O)cc3)c2)n1` [Example 197, 2′-Fluoro-5′-[3-(6-methylpyridin-2-yl)-1H-pyrazol-4-yl]-1,1′-biphenyl-4-ol] came in with a melting point of 72 to 74 °C.
Same read-out and setting: as for `Cc1cccc(-c2nn(C)cc2-c2ccc(F)c(-c3ccc(S(C)(=O)=O)cc3)c2)n1` [Example 199, 2-{4-[6-Fluoro-4′-(methylsulfonyl)-1,1′-biphenyl-3-yl]-1-methyl-1H-pyrazol-3-yl}-6-methylpyridine], the figure is 66 to 67 °C; as for `Cc1cccc(-c2nn(C(C)C)cc2-c2ccc(F)c(-c3ccc(S(C)(=O)=O)cc3)c2)n1` [Example 200, 2-{4-[6-Fluoro-4′-(methylsulfonyl)-1,1′-biphenyl-3-yl]-1-isopropyl-1H-pyrazol-3-yl}-6-methylpyridine], 172 to 173 °C; as for `Cn1cc(-c2cc(-c3c[nH]nc3-c3ccccn3)ccc2F)cn1` [Example 201, 2-{4-[4-Fluoro-3-(1-methyl-1H-pyrazol-4-yl)phenyl]-1H-pyrazol-3-yl}pyridine], 134 to 136 °C.
Still for that read-out and setting: the value for `CS(=O)(=O)c1ccc(-c2cc(-c3c[nH]nc3-c3cccc(C4CC4)n3)ccc2F)cc1` [Example 203, 2-Cyclopropyl-6-{4-[6-fluoro-4′-(methylsulfonyl)-1,1′-biphenyl-3-yl]-1H-pyrazol-3-yl}pyridine] was 102 to 104 °C.
`NS(=O)(=O)c1ccc(-c2cc(-c3c[nH]nc3-c3cccc(C4CC4)n3)ccc2F)cc1` [Example 204, 5′-[3-(6-Cyclopropylpyridin-2-yl)-1H-pyrazol-4-yl]-2′-fluoro-1,1′-biphenyl-4-sulfonamide] gave a melting point of 225 to 226 °C.
On the same count and under the same terms, as for `Cc1cccc(-c2n[nH]cc2-c2ccc(F)c(-c3cc[nH]n3)c2)n1` [Example 205, 2-{4-[4-Fluoro-3-(1H-pyrazol-3-yl)phenyl]-1H-pyrazol-3-yl}-6-methylpyridine], the figure is 105 to 108 °C; as for `Cc1cccc(-c2n[nH]cc2-c2ccc(F)c(-c3c[nH]c(C(O)CO)n3)c2)n1` (centres unmarked) [Example 207, 1-(4-{2-Fluoro-5-[3-(6-methylpyridin-2-yl)-1H-pyrazol-4-yl]phenyl}-1H-imidazol-2-yl)ethane-1,2-diol], 125 to 127 °C; as for `Cc1cccc(-c2n[nH]cc2-c2ccc(F)c(-c3c[nH]c(CO)n3)c2)n1` [Example 208, (4-{2-Fluoro-5-[3-(6-methylpyridin-2-yl)-1H-pyrazol-4-yl]phenyl}-1H-imidazol-2-yl)methanol], 243 to 246 °C.
Same read-out and setting: as for `Cc1cccc(-c2n[nH]cc2-c2ccc(F)c(-c3c[nH]c(CC(C)(C)O)n3)c2)n1` [Example 210, 1-(4-{2-Fluoro-5-[3-(6-methylpyridin-2-yl)-1H-pyrazol-4-yl]phenyl}-1H-imidazol-2-yl)-2-methylpropan-2-ol], the figure is 136 to 140 °C; as for `Cc1cccc(-c2n[nH]cc2-c2ccc(F)c(-c3cn4c(n3)[S+]([O-])CC4)c2)n1` (centres unmarked) [Example 211, 6-{2-Fluoro-5-[3-(6-methylpyridin-2-yl)-1H-pyrazol-4-yl]phenyl}-2,3-dihydroimidazo[2,1-b][1,3]thiazole 1-oxide], 140 to 144 °C; as for `Cc1cccc(-c2n[nH]cc2-c2ccc(F)c(-c3c[nH]c(CCN4CCOCC4)n3)c2)n1` [Example 213, 4-[2-(4-{2-Fluoro-5-[3-(6-methylpyridin-2-yl)-1H-pyrazol-4-yl]phenyl}-1H-imidazol-2-yl)ethyl]morpholine], 239 to 240 °C.
Regarding `Cc1cccc(-c2nc(N)sc2-c2ccc(F)c(-c3ccc(S(C)(=O)=O)cc3)c2)n1` [Example 215, 5-[6-Fluoro-4′-(methylsulfonyl)-1,1′-biphenyl-3-yl]-4-(6-methylpyridin-2-yl)-1,3-thiazol-2-amine], the melting point is 202 to 204 °C.
Same read-out and setting: as for `Cc1cccc(-c2nc(N)sc2-c2ccc(F)c(-c3ccc(S(N)(=O)=O)cc3)c2)n1` [Example 216, 5′-[2-Amino-4-(6-methylpyridin-2-yl)-1,3-thiazol-5-yl]-2′-fluoro-1,1′-biphenyl-4-sulfonamide], the figure is 190 to 192 °C.
